Assay: Safety and tolerability: adverse events, laboratory, ECG, physical examination
Assay type: in vivo, human
[1] = s.c. single dose 120 mg (n = 5)

## O=C(CN[C@@H]1CCNC1)N1CCC[C@H]1B(O)O [dutogliptin]
s.c. multidose 60 mg (n = 5)
  Pain without touching, related: subjects with at least 1 AE: 0
  Swelling, related: subjects with at least 1 AE: 0
  Systemic AEs, related: subjects with at least 1 AE: 1 (20%)
s.c. multidose 90 mg (n = 5)
  All AEs, related: subjects with at least 1 AE: 5 (100%)
  Erythema, related: subjects with at least 1 AE: 5 (100%)
  Fatigue, related: subjects with at least 1 AE: 1 (20%)
  Headache, related: subjects with at least 1 AE: 1 (20%)
  Hematoma, related: subjects with at least 1 AE: 1 (20%)
  Induration, related: subjects with at least 1 AE: 4 (80%)
  Local AEs, related: subjects with at least 1 AE: 5 (100%)
  Other local AEs, related: subjects with at least 1 AE: 0
  Other systemic AEs (dizziness and nausea), related: subjects with at least 1 AE: 2 (40%)
  Pain with touching, related: subjects with at least 1 AE: 2 (40%)
  Pain without touching, related: subjects with at least 1 AE: 1 (20%)
  Swelling, related: subjects with at least 1 AE: 1 (20%)
  Systemic AEs, related: subjects with at least 1 AE: 4 (80%)
s.c. multidose 120 mg (n = 5)
  All AEs, related: subjects with at least 1 AE: 5 (100%)
  Erythema, related: subjects with at least 1 AE: 5 (100%)
  Fatigue, related: subjects with at least 1 AE: 0
  Headache, related: subjects with at least 1 AE: 0
  Hematoma, related: subjects with at least 1 AE: 0
  Induration, related: subjects with at least 1 AE: 3 (60%)
  Local AEs, related: subjects with at least 1 AE: 5 (100%)
  Other local AEs, related: subjects with at least 1 AE: 0
  Other systemic AEs, related: subjects with at least 1 AE: 0
  Pain with touching, related: subjects with at least 1 AE: 2 (40%)
  Pain without touching, related: subjects with at least 1 AE: 2 (40%)
  Swelling, related: subjects with at least 1 AE: 0
  Systemic AEs, related: subjects with at least 1 AE: 0
s.c. single dose 30 mg (n = 5)
  All AEs, related: subjects with at least 1 AE: 5 (100%)
  Erythema, related: subjects with at least 1 AE: 5 (100%)
  Fatigue, related: subjects with at least 1 AE: 0
  Headache, related: subjects with at least 1 AE: 0
  Hematoma, related: subjects with at least 1 AE: 0
  Induration, related: subjects with at least 1 AE: 0
  Local AEs, related: subjects with at least 1 AE: 5 (100%)
  Other local AEs, related: subjects with at least 1 AE: 0
  Other systemic AEs, related: subjects with at least 1 AE: 0
  Pain with touching, related: subjects with at least 1 AE: 1 (20%)
  Pain without touching, related: subjects with at least 1 AE: 0
  Swelling, related: subjects with at least 1 AE: 0
  Systemic AEs, related: subjects with at least 1 AE: 0
s.c. single dose 60 mg (n = 5)
  All AEs, related: subjects with at least 1 AE: 5 (100%)
  Erythema, related: subjects with at least 1 AE: 5 (100%)
  Fatigue, related: subjects with at least 1 AE: 0
  Headache, related: subjects with at least 1 AE: 0
  Hematoma, related: subjects with at least 1 AE: 0
  Induration, related: subjects with at least 1 AE: 1 (20%)
  Local AEs, related: subjects with at least 1 AE: 5 (100%)
  Other local AEs, related: subjects with at least 1 AE: 0
  Other systemic AEs, related: subjects with at least 1 AE: 0
  Pain with touching, related: subjects with at least 1 AE: 0
  Pain without touching, related: subjects with at least 1 AE: 0
  Swelling, related: subjects with at least 1 AE: 0
  Systemic AEs, related: subjects with at least 1 AE: 0
s.c. single dose 90 mg (n = 5)
  All AEs, related: subjects with at least 1 AE: 5 (100%)
  Erythema, related: subjects with at least 1 AE: 5 (100%)
  Fatigue, related: subjects with at least 1 AE: 0
  Headache, related: subjects with at least 1 AE: 0
  Hematoma, related: subjects with at least 1 AE: 1 (20%)
  Induration, related: subjects with at least 1 AE: 0
  Local AEs, related: subjects with at least 1 AE: 5 (100%)
  Other local AEs, related: subjects with at least 1 AE: 0
  Other systemic AEs, related: subjects with at least 1 AE: 0
  Pain with touching, related: subjects with at least 1 AE: 0
  Pain without touching, related: subjects with at least 1 AE: 0
  Swelling, related: subjects with at least 1 AE: 1 (20%)
  Systemic AEs, related: subjects with at least 1 AE: 0
[1]
  All AEs, related: subjects with at least 1 AE: 5 (100%)
  Erythema, related: subjects with at least 1 AE: 4 (80%)
  Fatigue, related: subjects with at least 1 AE: 0
  Headache, related: subjects with at least 1 AE: 1 (20%)
  Hematoma, related: subjects with at least 1 AE: 1 (20%)
  Induration, related: subjects with at least 1 AE: 2 (40%)
  Local AEs, related: subjects with at least 1 AE: 4 (80%)
  Other local AEs (burning sensation at the injection site), related: subjects with at least 1 AE: 1 (20%)
  Other systemic AEs, related: subjects with at least 1 AE: 0
  Pain with touching, related: subjects with at least 1 AE: 0
  Pain without touching, related: subjects with at least 1 AE: 0
  Swelling, related: subjects with at least 1 AE: 0
  Systemic AEs, related: subjects with at least 1 AE: 1 (20%)

From paper PMC7163368 (British Journal of Clinical Pharmacology, 2020)
